Laboratory results published in US12440519B2 (Iowa State University Research Foundation, Inc., priority 2017, dated 2025).

Tests used:
[1] = mice, L-DOPA source in feed
Protocol: Feed was prepared in one of two ways depending on the source of L-DOPA. […] For purified L-DOPA, 1 g of purified L-DOPA is mixed in a 1:200 ratio with the feed powder. The mixed feed is then added to additional feed powder in a 1:4 ratio, creating a 1 mg/g L-DOPA feed.
For the 12-day trial 10 mice were placed in each group of control mice given feed plus the PBS gavage, a probiotic supplemented diet of normal feed plus a 1×10^9 CFU gavage of ML1082, and a synbiotic diet of feed with 1 mg/g supplemented pure L-DOPA and a 1×10^9 CFU gavage of ML1082. Behavioral testing was performed on days 11 and 12 (see below), followed by sacrifice and sample collection for UHPLC-ECD as above.

L-DOPA decarboxylase = test: Carbidopa inhibition of dopamine production by ML1082 in sSIM; format: cell-based, E. faecium; details: strain ML1082, sSIM
Protocol: A L-DOPA rich diet or a commonly prescribed 100 mg dose of L-DOPA would yield a concentration of about 1.0×10^−3 M concentration in sSIM. It follows then that a tablet that has 1:10 Carbidopa:L-DOPA tablet would likely result in a Carbidopa concentration of approximately 1/10th that on the order of 1.0×10^−4M (−log [Carbidopa]=4).
The IC50 was similar to the L-DOPA concentration of 1.26×10^−3 M, a finding that may indicate a competitive inhibitory mechanism for the bacterial enzyme.

E. coli = system: E. coli
Text: Although this is a well-established finding, the chemical-mechanistic effects of catecholamines on prokaryotes are relatively poorly understood. Neurochemical exposure has the potential not only to alter growth profiles and behavior, but it also appears to trigger the production of unique chemicals.

circular muscle = details: read-out: EC50, induced contractions; cited from earlier work
distal colon = details: read-out: EC50 of maximal response; cited from earlier work
longitudinal muscle = details: read-out: EC50, relaxation; cited from earlier work

In the case of `N[C@@H](Cc1ccc(O)c(O)c1)C(=O)O` [L-DOPA, L-3,4-dihydroxyphenylalanine], the “uptake of L-DOPA into the body before conversion by the probiotic” value [1] is reported as “absorbed into the body before it could interact with the probiotics”.
In the case of `C[C@@](Cc1ccc(O)c(O)c1)(NN)C(=O)O` [Carbidopa], the “inhibition of dopamine production” value (L-DOPA decarboxylase) is reported as “dose-dependent inhibition”.
For `NCCc1ccc(O)c(O)c1` [dopamine], the “production of the dopamine-induced compound by E. coli” value (E. coli; LB supplied with dopamine, FIG. 6F) is given as “little if any of this compound”, the “chemical response of E. coli” value (E. coli; sSIM spiked with 0.001 M dopamine) is given as “novel chemical response” and the EC50 (circular muscle) is given as 6.3 µM. The EC50 (distal colon) was 20 µM and the EC50 (longitudinal muscle) was 29 µM.
